# According to patent US20120053076A1, “METHODS FOR IDENTIFICATION” (Cambridge Enterprise Limited, priority 2009, published 2012):
# Assays:
# Jurkat-D3B cells = test: SDF-1α induced migration of Jurkat-D3B cells expressing sstr2; assay type: cell-based, human
# Description: Methods: Total mRNA was prepared from Panc-1 cells (a human pancreas cell line which is well known to express high levels of sstr2) using the RNAqueous 4PCR kit (Ambion, Cat code #1914) in accordance with the manufacturer's instructions. The mRNA was then reverse transcribed (using the RETROscript kit; Ambio) to yield a cDNA preparation. A full length cDNA of the sstr2 gene was then obtained by PCR (using a Peltier PTC-200 thermal cycler using the following cycle times and conditions: 94° C. for 2 min, followed by 30 cycles of 94° C., for 30 sec, 55° C. for 30 sec, 72° C. for 1 min and finally 72° C. for 10 min), and isolated by preparative gel electrophoresis. The sequence of the sstr2 cDNA was confirmed by sequencing. The sstr2 cDNA was treated with EcoRI and Xhol to generate sticky ends, which allowed directional cloning into the polylinker of the plasmid pcDNA3.1+ (Invitrogen) followed by ligation (100 ligation reactions were run with 400 T4 DNA ligase (New England Biolabs) and the maximal amounts of DNA with an insert:plasmid ratio of 3:1 in ligase buffer incubated overnight at 13° C.). […]
# A number of individual cell lines were obtained in this way, which expressed significant levels of sstr2 on the cell surface, detected by flow cytometry using the human-sstr2 antibody (Sigma, 50694; see Example 3 for details of the flow cytometry protocol used). […]
# Oral bioavailability = conditions: in vivo
Molecule,"Inhibition of Jurkat-D3B migration, in words (Jurkat-D3B cells)","Oral bioavailability, in words (Oral bioavailability)"
"CC(C)(C)C(=O)N[C@H]1CCCNC1=O [Valerolactam, (S)-3-(2′,2′-dimethylpropionoylamino)-tetrahydropyridin-2-one]",sensitive to inhibition,
"(S)-3-(2′,2′-dimethyldodecanoyl)amino-caprolactam [BN83250]",,only poorly orally bioavailable
